Reference: PMC11458958 (iScience, 2024)
Residues, ends and D or L forms follow the SMILES beside them. *: point of attachment. Cbz = O=C(OCc1ccccc1)*

Experiments:
[1] = tested on: mice with post-infarction remodeling; type: in vivo, C57BL/6J mice; conditions: 20 mg/kg daily oral
TAC mice = assay: Transverse aortic constriction
[2] = tested on: mice subjected to coronary occlusion and reperfusion; assay: In vivo acute reperfusion injury: 45 min coronary occlusion, 24 h reperfusion; set-up: species or system C57BL/6J mice; conditions: 25 mg/kg i.p. 10 min before reperfusion
cathepsins K, B, L and S = conditions: 25 mg/kg; cited from earlier work
cathepsin L = assay: Cathepsin activity in heart homogenates; type: in vivo, C57BL/6J mice; conditions: 25 mg/kg
cathepsins B and L = conditions: cited from earlier work
[3] = 4 weeks after TAC, 10 mg/kg daily oral from 1 to 4 weeks after TAC (3w)

CCOC(=O)[C@H](CCc1ccccc1)N[C@@H](C)C(=O)N1CCC[C@H]1C(=O)O [Enalapril]
EF ([1]; 4 weeks of reperfusion): 52.6 ± 2.2% | FS ([1]; 4 weeks of reperfusion): 22.7 ± 1.3% | IVST ([1]; 4 weeks of reperfusion): 0.79 ± 0.03 mm | LVEDD ([1]; 4 weeks of reperfusion): 4.85 ± 0.19 mm | LVESD ([1]; 4 weeks of reperfusion): 3.75 ± 0.12 mm | LVPWT ([1]; 4 weeks of reperfusion): 0.67 ± 0.02 mm | reduction of scar size vs. control group ([1]; 28 days): 24% | mortality rate ([1]; 28 days of reperfusion): 20% | EF (TAC mice; [3]): 49.5 ± 1.6^$∗ % | FS (TAC mice; [3]): 20.8 ± 0.8^$∗ % | HW (TAC mice; [3]): 151.8 ± 4.9 mg | HW/TL (TAC mice; [3]): 8.68 ± 0.26^$∗ mg/mm | IVST (TAC mice; [3]): 0.97 ± 0.03^$∗ mm | LVEDD (TAC mice; [3]): 4.48 ± 0.05∗ mm | LVESD (TAC mice; [3]): 3.55 ± 0.05^$∗ mm | LVPWT (TAC mice; [3]): 0.78 ± 0.03^$ mm | EF reduction with respect to baseline (TAC mice; 4 weeks after TAC, 10 mg/kg daily oral starting 1 week after TAC): 16% | capillary density (CD31 staining) (TAC mice; starting 1 week after TAC surgery, 10 mg/kg daily oral): preserved capillary density

CCCN1CCN(c2ccc(C(=O)NC3(C(=O)NCC#N)CCCCC3)cc2)CC1 [balicatib]
effect on infarct size [2]: failed to attenuate infarct size | cathepsin inhibition at this dose (cathepsins K, B, L and S): inhibits cathepsins K, B, L and S | cathepsin L activity in heart homogenates, reduced, compared to sham mice (cathepsin L): 41.2 ± 7.3%

CC(C)[C@H](NC(=O)OCc1ccccc1)C(=O)N[C@H](C=O)Cc1ccccc1 [MDL-28170] (Cbz-Val-Phe-aldehyde)
cathepsin inhibition (cathepsins B and L): inhibit at least cathepsins B and L

COCCOCCOC(=O)N[C@@H](CC(C)C)C(=O)N[C@@H](Cc1ccccc1)C(=O)C(=O)NC1CC1 [SNJ-1945]
cathepsin inhibition (cathepsins B and L): inhibit at least cathepsins B and L
